This is an account of results in article PMC5559490, “Synthesis of Saccharumoside-B analogue with potential of antiproliferative and pro-apoptotic activities” (Scientific Reports, 2017).

A value given as a limit tells only on which side of the number the result lay.

Assay [1] relates to cytosolic cytochrome c. Kind of assay: Cytosolic cytochrome c estimation (ELISA), HL-60. The class given is cell-based, human. To be noted: HL-60 cells; cytosolic fraction. The protocol:
Cells were collected by centrifugation at 600 g for 5 min at 4 °C. The cell pellets were washed once with ice-cold PBS and resuspended in cytosol extraction buffer (20 mM Hepes-KOH, pH 7.5, 10 mM KCl, 1.5 mM MgCl2, 1 mM sodium EDTA, 1 mM sodium EGTA, 1 mM dithiothreitol and 0.1 mM PMSF) containing 250 mM sucrose on ice for 10 min. The cells were homogenized with the grinder on ice. Further, the homogenates were centrifuged at 700 g for 10 min at 4 °C. The supernatants were centrifuged at 10,000 × g for 30 min at 4 °C. Supernatant was collected as cytosolic fraction.
Cytosolic cytochrome c levels were determined using quantitative sandwich enzyme immunoassay using microplate reader. Sample or standard (100 μL) was added into each well and incubated for 2 h at room temperature. The wells were washed several times with wash buffer. The plate was inverted and cleaned with paper toweling. Cytochrome c conjugate (200 μL) was added into each well and incubated for 2 h at room temperature. Wells were washed several times with wash buffer. Substrate solution (200 μL) was added into each well and incubated for 30 min at room temperature. Finally, stop solution (50 μL) was added into wells. The optical density (absorbance) of each well was determined using microplate reader at a 450 nm wavelength.

The subject of assay [2] is caspase-8. Briefly: Caspase-8 colorimetric assay, HL-60. The class given is cell-based, human. To be noted: HL-60 cells; data not showed. The protocol: Caspases-3, -8 and -9 assays were measured according to manufacturer’s instructions using a caspase colorimetric protease kit (Abcam, Cambridge, MA, USA). Cells were treated with compounds for 48 h. The cells were lysed by the addition of 50 μL of chilled cell lysis buffer and incubated on ice for 10 min. The resulting cell lysate was centrifuged for 1 min at 10,000 g, and the supernatant was collected. The cell lysate containing […] of protein was incubated with […] of 4 mmol/L pNA-conjugated substrates (DEVD-pNA, IETD-pNA and LEHD-pNA; substrates for caspase-3, -8 and -9, respectively) at 37 °C for 3 h. The amount of pNA released was measured at 405 nm using an ELISA microplate reader (Bio rad). The caspases activity was expressed as fold difference, [33].

Assay [3] concerns HL-60 leukemia cells. Kind of assay: MTT antiproliferative assay, HL-60. In kind it is cell-based, human. A general note: Formazan colour is commonly taken as a measure of viable cells.
Assay [4] has as its system MCF-7 cells. Kind of assay: Rhodamine-123 mitochondrial membrane potential assay, MCF-7. The class given is cell-based, human. The following applies: 24 h. The protocol: [Worded in the source for another cell line; this cell line is reported under the same test.] Mitochondrial membrane potential changes (ΔΨm) were determined by flow cytometry using rhodamine-123 (green-fluorescent dye)[32]. MIA PaCa-2 pancreatic cancer cells (1 × 10^6 cells/well) were exposed to the isolated compound (5 µM) for 24 h. Further, rhodamine-123 (200 nM) was added to the cells, which were kept in dark for 35 min. The cells were further centrifuged and the pellet was washed with phosphate buffered saline (1 ml). The intensity of fluorescence in the cells represented the mitochondrial membrane potential change (ΔΨm), which was measured using a flow cytometer.

Assay [5] relates to MCF-10A mammary epithelial cells. Briefly: MTT assay on normal MCF-10A cells. The class given is cell-based. To be noted: Homo sapiens, MTT assay, normal cells, 48 h, read-out: IC50 MCF-10A Breast (normal cell line).
For assay [6], the system named is MCF-7 breast cancer cells. Briefly: MTT antiproliferative assay, MCF-7. The class given is cell-based. The following applies: Homo sapiens, MCF7; MTT assay; cancer cell line; mean of three independent experiments ± S.E.M.; read-out: IC50 MCF-7 Breast.
In assay [7] the test system is HL-60 cells. Briefly: Rhodamine-123 mitochondrial membrane potential assay, HL-60. The class given is cell-based, human. To be noted: compared to untreated cells.
Assay [8] relates to HeLa cervical cancer cells. Briefly: MTT antiproliferative assay, HeLa. In kind it is cell-based. The following applies: Homo sapiens, MTT assay, cancer cell line, mean of three independent experiments ± S.E.M., read-out: IC50 HeLa Cervical.
The subject of assay [9] is Bax. Briefly: Quantification of Bax (immunometric assay), MCF-7. The class given is cell-based, human. The following applies: MCF-7 cells; compared to untreated cells. The procedure:
Bax protein concentration determination was carried out using the Human Bax Enzyme Immunometric Assay kit (Assay Designs, Ann Arbor, MI, USA). The lysate (sample) preparation was carried out according to the manual. Following centrifugation (16,000 g for 15 min), the cells were resuspended in Modified Cell lysis buffer 4 [0.5 μL/mL of Sigma Protease Inhibitor Cocktail and 1 mM phenylmethylsulfonyl fluoride (PMSF)]. Cell lysate (100 μL) (sample) was added into the wells coated with monoclonal antibody to human Bax-α in triplicate. The plate was tapped gently to mix the contents. The sample was incubated at room temperature on a plate shaker for 1 h. The wells were emptied and washed with 5X wash buffer. After the final wash, the plate was tapped gently on a lint free paper towel to remove any remaining wash buffer. The sample was incubated again for 1 h at room temperature on a plate shaker after the addition of 100 μL of specific antibody (biotinylated monoclonal antibody to Bax-α) into each well. The wells were washed again with 5X wash buffer and emptied. Next, 100 μL of blue conjugate (streptavidin conjugated to horseradish peroxidase) was added into each well. […] The optical densities were read at 450 and 570 nm using an ELISA reader. Bax protein concentration was determined from the standard protein graphic using the optical densities of the samples[32].

Assay [10] relates to Bcl-2. Briefly: Quantification of Bcl-2 (ELISA), MCF-7. To be noted: MCF-7 cells; compared to untreated cells. The class given is cell-based, human. The protocol: The intracellular content of Bcl-2 was quantified using the human Bcl-2 ELISA kit (Abcam, Cambridge, MA, USA). For the sample preparation, the cells were lysed with 1X lysis buffer. After 1 h of incubation at room temperature, the sample was spun at 1,000 g for 15 min and the supernatant was used for Bcl-2 measurement. Briefly, 80 μL of sample diluent and 20 μL of sample were added into the wells coated with monoclonal antibody to human Bcl-2, and after that the wells were washed twice with the wash buffer. Next, 50 μL of biotin-conjugate were added into the wells. After 2 h of incubation at room temperature on a microplate shaker, 100 μL of streptavidin-horseradish peroxidase were added. The sample was incubated again for 1 h at room temperature on a microplate shaker. The solution was withdrawn and the wells were washed with 3X wash buffer. Immediately, 100 μL of TMB substrate solution were added. Finally, 100 μL of stop solution were added into each well to stop the enzyme reaction. The absorbance was read using an ELISA reader at 450 and 620 nm wavelengths. Bcl-2 protein concentration was determined from the standard protein graphic using the optical densities of the samples[32].
(In general: ELISA stands for enzyme-linked immunosorbent assay.)

In assay [11] the test system is CaCo-2 colon cancer cells. Briefly: MTT antiproliferative assay, CaCo-2. In kind it is cell-based. To be noted: Homo sapiens, Caco-2; MTT assay; cancer cell line; mean of three independent experiments ± S.E.M.; read-out: IC50 CaCo-2 Colon.

By IC50 is commonly meant the concentration needed to halve the response being measured.

Consider `COc1cc(CO)ccc1OC1OC(COC(=O)c2ccc(F)cc2)C(O)C(O)C1O` (centres unmarked) [Compound 9f, (6-(4-(hydroxymethyl)-2-methoxyphenoxy)-tetrahydro-3,4,5-trihydroxy-2H-pyran-2-yl)methyl 4-fluorobenzoate], for which, in assay [1], the “effect on cytosolic cytochrome c levels” value is “dose dependently increased”. Besides, the “effect on caspase-8 activity” value in assay [2] is on record as “did not exhibit considerable effect”. Further, the “anti-proliferative effect at 24 h” value in assay [3] (HL-60 cells, 24 h, versus camptothecin (positive control)) is recorded as “better antiproliferative effect than camptothecin”. For the same compound, the half-maximal inhibitory concentration (IC50) in [3] (Homo sapiens, HL-60, MTT assay, cancer cell line, mean of three independent experiments ± S.E.M., read-out: IC50 HL-60 Leukemia) is 4.43 ± 0.35 µM; in [5], > 100 µM; in assay [6], 6.13 ± 0.64 µM; in [8] it was 7.85 ± 0.57 µM; in [11] it was 8.66 ± 0.72 µM. Further, the “mitochondria membrane potential loss” value is recorded as 41.33 ± 1.43% in assay [4] (5 µM), 52.67 ± 2.33% in [4] (10 µM), 55.32 ± 2.14% in [7] (5 µM) and 65.56 ± 2.56% in [7] (10 µM). Further, the “effect on Bax protein levels” value in [9] is “dose dependently increased”. Also, the “effect on Bcl-2 levels” value in assay [10] is listed as “dose dependent inhibition of Bcl-2”.
